Tests used:
[1] = Body weight, heart weight and kidney weight in SHR; format: in vivo, rat; conditions: 2 g daily/kg orally, 4 weeks
From the text: (§1) Male spontaneously hypertensive rats of age 8 weeks (SHR) and male Wister KYOTO rats (WKY) of the same age were used. SHR was fed with a 0.5% salt diet or a 8% salt diet (Oriental Yeast Co., Ltd.) for 4 weeks (individually referred to as the 0.5% salt diet group and the 8% salt diet group). Additionally, D-allose or D-glucose was orally given to the 0.5% salt diet group and the 8% salt diet group, at 2 g daily/kg body weight (D-allose group or D-glucose group) during the period. WKY was fed with the 0.5% salt diet and used as a normal control group. Systolic blood pressure was measured by the tail-cuff method over time.

[2] = test system: Nox-4 messenger RNA; experiment: Messenger RNA of NADPH oxidase-composing factor Nox4; format: in vivo, rat; conditions: DS rats, 4% salt diet, 4 weeks, DR rats = 1.00
From the text: (§2) Salt-sensitive male Dahl rats of age 7 weeks and with the onset of hypertension (DS) and salt-insensitive male Dahl rats of the same age (DR) were used. The DS rats were fed with a 0.5% salt diet or a 4% salt diet (Oriental Yeast Co., Ltd.) for 4 weeks (individually referred to as 0.5% salt diet group and 4% salt diet group). During the period, D-allose or D-glucose was orally given to the 4% salt diet group at 2 g daily/kg body weight (D-allose group or D-glucose group). The DR rats were fed with the 0.5% salt diet group and used as a normal control group. Blood pressure was measured by the tail-cuff method over time, while before salt loading and on the completion of salt loading, urine was collected for one day. On the last day of the observation period, the thoracic aorta was resected. A part thereof was used to quantify the amount of generated active oxygen in the aorta by the lucigenin method, while another part thereof was used to compare the amount of generated active oxygen between the groups by the dihydroxyethidium (DHE) fluorescence method. So as to assay the expression level of the messenger RNA of the NADPH oxidase involved in the increase of tissue oxidative stress (J Hypertens. 2004; 22:2161-2168), further, the renal cortex and the thoracic aorta were partially stored at −80° C. The levels of the messenger RNAs of p22phox and Nox analogs (Nox-1, gp91phox, Nox-4) as the NADPH oxidase-composing factors were assayed and compared in between thoracic aorta and renal cortex.

[3] = test system: active oxygen in rat thoracic aorta; experiment: Generated active oxygen in thoracic aorta, lucigenin method; format: in vivo; conditions: DS rats, 4% salt diet, 2 g daily/kg orally, 4 weeks
From the text: as §2, with “[…] Then,” for “The levels of”, “luminescence was counted with a luminescence reader (BLR-301; Aloka).” for “messenger RNAs of p22phox and Nox analogs (Nox-1, gp91phox, Nox-4) as the NADPH oxidase-composing factors were assayed and compared in between thoracic aorta and renal cortex.”

[4] = test system: salt-sensitive Dahl rats with the onset of hypertension (DS); experiment: Blood pressure by the tail-cuff method in salt-loaded salt-sensitive Dahl rats; format: in vivo, rat; conditions: 4% salt diet, 2 g daily/kg body weight orally, in 4 weeks
From the text: as §2, with “C.” for “C. The levels of the messenger RNAs of p22phox and Nox analogs (Nox-1, gp91phox, Nox-4) as the NADPH oxidase-composing factors were assayed and compared in between thoracic aorta and renal cortex.”

[5] = Urine generation, Na and protein excretion in urine in DS rats; format: in vivo, rat
From the text: as §2, with “C.” for “C. The levels of the messenger RNAs of p22phox and Nox analogs (Nox-1, gp91phox, Nox-4) as the NADPH oxidase-composing factors were assayed and compared in between thoracic aorta and renal cortex.”

[6] = test system: active oxygen in rat thoracic aorta; experiment: Generated active oxygen in thoracic aorta, DHE fluorescence method; format: in vivo; conditions: DS rats, 4% salt diet, 2 g daily/kg orally, 4 weeks
From the text: as §2, with “[…] A 10-μm ring slice piece was prepared from the embedded aorta with a cryostat,” for “So as”, “observe” for “assay”, “intra-tissue localization of ethidium generated from the specific reaction between active oxygen and DHE, along with the intensity” for “expression level”, “luminescence, with a co-focus microscope (Bio-Rad).” for “messenger RNA of the NADPH oxidase involved in the increase of tissue oxidative stress (J Hypertens. 2004; 22:2161-2168), further, the renal cortex and the thoracic aorta were partially stored at −80° C. The levels of the messenger RNAs of p22phox and Nox analogs (Nox-1, gp91phox, Nox-4) as the NADPH oxidase-composing factors were assayed and compared in between thoracic aorta and renal cortex.”

[7] = test system: gp91phox messenger RNA; experiment: Messenger RNA of NADPH oxidase-composing factor gp91phox; format: in vivo, rat; conditions: DS rats, 4% salt diet, 4 weeks, DR rats = 1.00
From the text: as §2

[8] = test system: spontaneously hypertensive rats (SHR); experiment: Systolic blood pressure by the tail-cuff method in spontaneously hypertensive rats; format: in vivo, rat; conditions: 2 g daily/kg orally, 4 weeks
From the text: as §1

[9] = test system: p22phox messenger RNA; experiment: Messenger RNA of NADPH oxidase-composing factor p22phox; format: in vivo, rat; conditions: DS rats, 4% salt diet, 4 weeks, DR rats = 1.00
From the text: as §2

[10] = test system: Nox-1 messenger RNA; experiment: Messenger RNA of NADPH oxidase-composing factor Nox1; format: in vivo, rat; conditions: DS rats, 4% salt diet, 4 weeks, DR rats = 1.00
From the text: as §2

[11] = Body weight, organ weight and feed intake in DS rats; format: in vivo, rat; conditions: 4% salt diet, 2 g daily/kg orally, after 4-week feeding
From the text: as §2, with “C.” for “C. The levels of the messenger RNAs of p22phox and Nox analogs (Nox-1, gp91phox, Nox-4) as the NADPH oxidase-composing factors were assayed and compared in between thoracic aorta and renal cortex.”

[12] = 4% salt diet, 2 g daily/kg orally, after 4-week feeding

| Compound | Heart weight ([1]; 0.5% salt diet) [mg] | Heart/body weight ratio ([1]; 0.5% salt diet) | Kidney weight ([1]; 0.5% salt diet) [mg] | Kidney/body weight ratio ([1]; 0.5% salt diet) | Heart weight ([1]; 8% salt diet) [mg] | Heart/body weight ratio ([1]; 8% salt diet) | Kidney weight ([1]; 8% salt diet) [mg] | Kidney/body weight ratio ([1]; 8% salt diet) | Nox4 messenger RNA level ([2]; Aorta) | Nox4 messenger RNA level ([2]; Renal cortex) | active oxygen generation in thoracic aorta (lucigenin method) [3] | diastolic pressure [4] [mmHg] | systolic pressure [4] [mmHg] | Protein excretion in urine [5, 12] [mg/day] | Protein excretion in urine ([5]; before salt loading (baseline)) [mg/day] | signal accumulation in the aorta media nucleus on DHE fluorescence images [6] | gp91phox messenger RNA level ([7]; Aorta) | gp91phox messenger RNA level ([7]; Renal cortex) | systolic blood pressure ([8]; 0.5% salt diet) [mmHg] | systolic blood pressure ([8]; 8% salt diet) [mmHg] | further results |
| --- | --- | --- | --- | --- | --- | --- | --- | --- | --- | --- | --- | --- | --- | --- | --- | --- | --- | --- | --- | --- | --- |
| O=C[C@H](O)[C@H](O)[C@H](O)[C@H](O)CO [D-allose] | 1042 ± 23 | 3.56 ± 0.05 ×10^−3 | 1212 ± 34 | 4.15 ± 0.08 ×10^−3 | 1337 ± 50 | 4.40 ± 0.06 ×10^−3 | 1387 ± 61 | 4.57 ± 0.17 ×10^−3 | 1.36 ± 0.10 | 1.32 ± 0.22 | suppressed to the level as observed in the 0.5% salt diet group or the DR normal control group | 102±4 | 135±7 | 31.3 ± 11.8 | 9.5 ± 1.2 | suppressed | 1.34 ± 0.27 | 0.97 ± 0.15 | 180±5 | 222±8 | p22phox messenger RNA level ([9]; Aorta): 0.83 ± 0.21; p22phox messenger RNA level ([9]; Renal cortex): 1.18 ± 0.20; Nox1 messenger RNA level ([10]; Aorta): 0.74 ± 0.22; Nox1 messenger RNA level ([10]; Renal cortex): 0.88 ± 0.11; Heart weight [11]: 994 ± 28 mg; Heart/body weight ratio [11]: 2.88 ± 0.07 ×10^−3; Kidney weight [11]: 1389 ± 25 mg; Kidney/body weight ratio [11]: 4.03 ± 0.03 ×10^−3 |
| O=C[C@H](O)[C@@H](O)[C@H](O)[C@H](O)CO [D-glucose] | 1180 ± 35 | 3.92 ± 0.15 ×10^−3 | 1206 ± 32 | 3.02 ± 0.02 ×10^−3 | 1437 ± 38 | 4.70 ± 0.13 ×10^−3 | 1342 ± 41 | 4.40 ± 0.19 ×10^−3 | 1.75 ± 0.24 | 1.38 ± 0.16 | no such suppressive effect was observed | 125±6 | 162±5 | 85.3 ± 20.5 | 13.1 ± 3.2 | never changed | 1.90 ± 0.19 | 1.20 ± 0.28 | 201±7 | 255±5 | p22phox messenger RNA level ([9]; Aorta): 1.14 ± 0.32; p22phox messenger RNA level ([9]; Renal cortex): 1.19 ± 0.06; Nox1 messenger RNA level ([10]; Aorta): 0.85 ± 0.24; Nox1 messenger RNA level ([10]; Renal cortex): 1.03 ± 0.24; Heart weight [11]: 1066 ± 35 mg; Heart/body weight ratio [11]: 3.00 ± 0.08 ×10^−3; Kidney weight [11]: 1370 ± 36 mg; Kidney/body weight ratio [11]: 3.85 ± 0.07 ×10^−3 |

From patent US8440619B2, “Utilization of hypertension/hypercardia-preventing effect of D-allose” (National University Corporation Kagawa University, priority 2005, dated 2013)
